Measurements reported in patent US20220387604A1, “SELECTIVE DUAL HISTONE DEACETYLASE 6/8 (HDAC6/8) DEGRADERS AND METHODS OF USE THEREOF” (DANA-FARBER CANCER INSTITUTE, INC., priority 2019, published 2022).

Key:
HDAC6/8 = assay: Quantitative proteomics of cellular protein abundance in Kelly cells: HDAC6/8; assay type: cell-based, human; settings: moderated t-test, scatter plots FIG. 2A-2C, 4A-4B
Method: Lysis buffer (8 M Urea, 50 mM NaCl, 50 mM 4-(2hydroxyethyl)-1-piperazineethanesulfonic acid (EPPS) pH 8.5, protease and phosphatase inhibitors from Roche®) were added to the cell pellets and homogenized by 20 passes through a 21 gauge (1.25 in. long) needle to achieve a cell lysate with a protein concentration between 1-4 mg mL^−1. A micro-BCA assay (Pierce™) was used to determine the final protein concentration in the cell lysate. 200 μg of protein for each sample were reduced and alkylated as described in Donovan et al., Elife 7:e38430 (2018).
Proteins were precipitated using methanol/chloroform. Four volumes of methanol were added to the cell lysate, followed by one volume of chloroform, and finally three volumes of water. The mixture was vortexed and centrifuged to separate the chloroform phase from the aqueous phase. The precipitated protein was washed with three volumes of methanol, centrifuged and the resulting washed precipitated protein was allowed to air dry. The precipitated protein was resuspended in 4 M Urea, 50 mM HEPES pH 7.4, followed by dilution to 1 M urea with the addition of 200 mM EPPS, pH 8. Proteins were first digested with LysC (1:50; enzyme:protein) for 12 hours at room temperature. The LysC digestion was diluted to 0.5 M Urea with 200 mM EPPS pH 8 followed by digestion with trypsin (1:50; enzyme:protein) for 6 hours at 37° C. Tandem mass tag (TMT) reagents (Thermo Fisher Scientific) were dissolved in anhydrous acetonitrile (ACN) according to manufacturer's instructions.
Anhydrous ACN was added to each peptide sample to a final concentration of 30% v/v, and labeling was induced with the addition of TMT reagent to each sample at a ratio of 1:4 peptide:TMT label. The 10-plex labeling reactions were performed for 1.5 hours at room temperature and the reaction quenched by the addition of hydroxylamine to a final concentration of 0.3% for 15 minutes at room temperature. The sample channels were combined at a 1:1:1:1:1:1:1:1:1:1:1 ratio, desalted using C18 solid phase extraction cartridges (Waters®) and analyzed by LC-MS for channel ratio comparison. Samples were then combined using the adjusted volumes determined in the channel ratio analysis and dried down in a speed vacuum. The combined sample was then resuspended in 1% formic acid, and acidified (pH 2-3) before being subjected to desalting with C18 SPE (Sep-Pak®, Waters®). Samples were then offline fractionated into 96 fractions by high pH reverse-phase HPLC (Agilent® LC1260) through an aeris peptide xb-c18 column (Phenomenex®) with mobile phase A containing 5% acetonitrile and 10 mM NH4HCO3 in LC-MS grade H2O, and mobile phase B containing 90% acetonitrile and 10 mM NH4HCO3 in LC-MS grade H2O (both pH 8.0). The 96 resulting fractions were then pooled in a non-continuous manner into 24 fractions and these fractions were used for subsequent mass spectrometry analysis.
Data were collected using an Orbitrap Fusion™ Lumos™ mass spectrometer (Thermo Fisher Scientific, San Jose, Calif., USA) coupled with a Proxeon EASY-nLC™ 1200 LC pump (Thermo Fisher Scientific). Peptides were separated on an EasySpray™ ES803 75 μm inner diameter microcapillary column (ThermoFisher Scientific).
Each analysis used an MS3-based TMT method as described in McAlister et al., Anal. Chem. 86(14):7150-7158 (2014). The data were acquired using a mass range of m/z 340-1350, resolution 120,000, automatic gain control (AGC) target 1×10^6, maximum injection time 100 ms, dynamic exclusion of 120 seconds for the peptide measurements in the Orbitrap Fusion™ Lumos™ mass spectrometer. Data dependent MS2 spectra were acquired in the ion trap with a normalized collision energy (NCE) set at 55%, AGC target set to 1.5×10^5 and a maximum injection time of 150 ms. […]

[1] = target: T1, full length human HDAC8-EGFP (Homo sapiens, UniProt Q9BY41); assay: HDAC8 reporter assay (HDAC8-EGFP with mCherry reporter); assay type: cell-based; settings: 5 hour treatment, FIG. 6; hook effect at higher concentrations
T1 construct: Cells stably expressing the full length human HDAC8-EGFP with mCherry reporter; expressed in transfected cells; Cilantro2 vector (Addgene, 74450)
T1 sequence (Q9BY41 1-377): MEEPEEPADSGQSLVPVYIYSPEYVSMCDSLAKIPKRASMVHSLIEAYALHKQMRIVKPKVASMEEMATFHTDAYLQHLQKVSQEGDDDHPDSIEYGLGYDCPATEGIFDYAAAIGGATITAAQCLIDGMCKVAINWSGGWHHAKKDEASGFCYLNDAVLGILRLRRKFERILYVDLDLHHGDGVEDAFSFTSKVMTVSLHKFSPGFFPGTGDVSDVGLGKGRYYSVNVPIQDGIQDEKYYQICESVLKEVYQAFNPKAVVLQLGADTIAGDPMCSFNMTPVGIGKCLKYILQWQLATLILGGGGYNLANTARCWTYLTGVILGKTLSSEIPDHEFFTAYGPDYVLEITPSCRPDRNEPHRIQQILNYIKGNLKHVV
Method: Cells stably expressing the full length human HDAC8-EGFP with mCherry reporter in Cilantro2 vector (Addgene, 74450) were seeded at 30-50% confluency in 384-well plates with 50 μL FluoroBrite™ DMEM media (Thermo Fisher Scientific, A18967) containing 10% FBS per well a day before compound treatment. Compounds were dispensed using a D300e Digital Dispenser (HP), normalized to 0.5% DMSO, and incubated with cells for 5 hours. The assay plate was imaged immediately using an Acumen® High Content Imager (TTP Labtech) with 488 nm and 561 nm lasers in […] per well format. The resulting images were analyzed using CellProfiler™.
A series of image analysis steps (‘image analysis pipeline’) was constructed. First, the red and green channels were aligned and cropped to target the middle of each well (to avoid analysis of heavily clumped cells at the edges), and a background illumination function was calculated for both red and green channels of each well individually and subtracted to correct for illumination variations across the 384-well plate from various sources of error. An additional step was then applied to the green channel to suppress the analysis of large auto fluorescent artifacts and enhance the analysis of cell specific fluorescence by way of selecting for objects under a given size, 30 A.U., and with a given shape, speckles. mCherry-positive cells were then identified in the red channel filtering for objects between 8-60 pixels in diameter and using intensity to distinguish between clumped objects. The green channel was then segmented into GFP positive and negative areas and objects were labeled as GFP positive if at least 40% of it overlapped with a GFP positive area. The fraction of GFP-positive cells/mCherry-positive cells in each well was then calculated, and the green and red images were rescaled for visualization. The values for the concentrations that lead to a 50% degradation (DC50) were calculated using the nonlinear fit variable slope model in GraphPad Prism software.

O=C(/C=C/c1ccc(CN(CCOCCOCCOCCOCCNc2cccc3c2C(=O)N(C2CCC(=O)NC2=O)C3=O)CCc2c[nH]c3ccccc23)cc1)NO (stereo not drawn) [Compound 5, (E)-3-(4-(2-(2-(1H-indol-3-yl)ethyl)-16-((2-(2,6-dioxopiperidin-3-yl)-1,3-dioxoisoindolin-4-yl)amino)-5,8,11,14-tetraoxa-2-azahexadecyl)phenyl)-N-hydroxyacrylamide]
reduction in HDAC6/8 protein levels compared to DMSO treated cells (HDAC6/8): significant reduction
degradation of GFP tagged HDAC8 in the reporter cell lines [1]: degradation of GFP tagged HDAC8

O=C(/C=C/c1ccc(CN(CCOCCOCCOCCNc2cccc3c2C(=O)N(C2CCC(=O)NC2=O)C3=O)CCc2c[nH]c3ccccc23)cc1)NO (stereo not drawn) [Compound 4, (E)-3-(4-(2-(2-(1H-indol-3-yl)ethyl)-13-((2-(2,6-dioxopiperidin-3-yl)-1,3-dioxoisoindolin-4-yl)amino)-5,8,11-trioxa-2-azatridecyl)phenyl)-N-hydroxyacrylamide]
degradation of GFP tagged HDAC8 in the reporter cell lines [1]: degradation of GFP tagged HDAC8
